The source of these data is patent US9926321B2, “Hsp90 inhibitors” (Sloan-Kettering Institute for Cancer Research, priority 2011, dated 2018).

Assay [1] deals with T1, hERG (Homo sapiens, UniProt Q12809).
T1 construct: purchased Invitrogen PV5365
Description: hERG fluorescence polarization assay (Predictor hERG kit). It counts as binding. How it is done: hERG Fluorescence Polarization Assay:
Following the manufacturer's protocol, the hERG assay was performed using Predictor hERG Fluorescence Polarization Assay kit (catalog no. PV5365) from Invitrogen. Briefly, FP measurements were performed on an Analyst GT instrument (Molecular Devices, Sunnyvale, Calif.). Measurements were taken in black 384-well plates (Corning #3677), where both the excitation and the emission occurred from the top of the well. The test compounds were dissolved in DMSO and added at several concentrations to the Predictor hERG FP assay buffer containing 4 nM Predictor hERG tracer red and 10 μL of Predictor hERG membrane in a final volume of 20 μL. Drugs were added to triplicate wells. E-4031 as positive control was included in each plate. Plates were then kept on a shaker at room temperature and polarization values were measured after 4 hrs. The inhibition concentration at which 50% of tracer red gets displaced was obtained by fitting the data using a nonlinear regression analysis as implemented in Prism 5.0 (GraphPad Software).

Assay [2] concerns Hsp90 (SKBr3 lysate). Description: Hsp90 binding assay (fluorescence polarization, cy3B-GM displacement), human cancer cell lysate. To be noted: lysate not given. How it is done:
(§1) For the binding studies, fluorescence polarization (FP) assays w-re performed similarly as was previously reported [Du et al. (2007) “High-throughput screening fluorescence polarization assay for tumor-specific Hsp90” J. Biomol. Screen 12:915-924]. Briefly, FP measurements were performed on an Analyst GT instrument (Molecular Devices, Sunnyvale, Calif.). Measurements were taken in black 96-well microtiter plates (Corning #3650) where both the excitation and the emission occurred from the top of the well. A stock of 10 μM cy3B-GM was prepared in DMSO and diluted with HFB buffer (20 mM Hepes (K), pH 7.3, 50 mM KCl, 2 mM DTT, 5 mM MgCl2, 20 mM Na2MoO4, and 0.01% NP40 with 0.1 mg/mL BGG). The test compounds were dissolved in DMSO and added at several concentrations to the HFB assay buffer containing both 6 nM cy3B-GM and transgenic mouse brain lysate (6 μg JNPL3 lysate) or human cancer cell lysate (3 μg SKBr3 lysate) in a final volume of 100 μL. Drugs were added to triplicate wells. Free cy3B-GM (6 nM cy3B-GM), bound cy3B-GM (6 nM cy3B-GM+lysate, as indicated above) and buffer only containing wells (background) were included as controls in each plate. Plates were incubated on a shake at 4° C., and polarization values measured at 24 h. Percentage inhibition was calculated as follows: (% Control)=100−((mPc−mPf)/(mPb−mPf))×100, where mPc is the recorded mP from compound wells, mPf is the average recorded mP from cy3B-GM-only wells, and mPb is the average recorded mP from wells containing both cy3B-GM and lysate, and plotted against values of competitor concentrations. The inhibitor concentration at which 50% of bound cy3B-GM was displaced was obtained by fitting the data using a nonlinear regression analysis as implemented in Prism 4.0 (GraphPad Software).
In general terms: Polarisation of emitted light reports the rotation of a fluorescent probe.

In assay [3] the test system is Hsp90. Described as above. The note with it: fluorescence polarization, cy3B-GM displacement; the table does not say which lysate (SKBr3 or JNPL3). How it is done: as §1
Where [4] appears, read: Predictor hERG fluorescence polarization, displacement of tracer red, read after 4 hrs, read-out: hERG assay.

Read-outs that look alike come from different tables or passages of the source.

T1 sequence (Q12809 whole entry): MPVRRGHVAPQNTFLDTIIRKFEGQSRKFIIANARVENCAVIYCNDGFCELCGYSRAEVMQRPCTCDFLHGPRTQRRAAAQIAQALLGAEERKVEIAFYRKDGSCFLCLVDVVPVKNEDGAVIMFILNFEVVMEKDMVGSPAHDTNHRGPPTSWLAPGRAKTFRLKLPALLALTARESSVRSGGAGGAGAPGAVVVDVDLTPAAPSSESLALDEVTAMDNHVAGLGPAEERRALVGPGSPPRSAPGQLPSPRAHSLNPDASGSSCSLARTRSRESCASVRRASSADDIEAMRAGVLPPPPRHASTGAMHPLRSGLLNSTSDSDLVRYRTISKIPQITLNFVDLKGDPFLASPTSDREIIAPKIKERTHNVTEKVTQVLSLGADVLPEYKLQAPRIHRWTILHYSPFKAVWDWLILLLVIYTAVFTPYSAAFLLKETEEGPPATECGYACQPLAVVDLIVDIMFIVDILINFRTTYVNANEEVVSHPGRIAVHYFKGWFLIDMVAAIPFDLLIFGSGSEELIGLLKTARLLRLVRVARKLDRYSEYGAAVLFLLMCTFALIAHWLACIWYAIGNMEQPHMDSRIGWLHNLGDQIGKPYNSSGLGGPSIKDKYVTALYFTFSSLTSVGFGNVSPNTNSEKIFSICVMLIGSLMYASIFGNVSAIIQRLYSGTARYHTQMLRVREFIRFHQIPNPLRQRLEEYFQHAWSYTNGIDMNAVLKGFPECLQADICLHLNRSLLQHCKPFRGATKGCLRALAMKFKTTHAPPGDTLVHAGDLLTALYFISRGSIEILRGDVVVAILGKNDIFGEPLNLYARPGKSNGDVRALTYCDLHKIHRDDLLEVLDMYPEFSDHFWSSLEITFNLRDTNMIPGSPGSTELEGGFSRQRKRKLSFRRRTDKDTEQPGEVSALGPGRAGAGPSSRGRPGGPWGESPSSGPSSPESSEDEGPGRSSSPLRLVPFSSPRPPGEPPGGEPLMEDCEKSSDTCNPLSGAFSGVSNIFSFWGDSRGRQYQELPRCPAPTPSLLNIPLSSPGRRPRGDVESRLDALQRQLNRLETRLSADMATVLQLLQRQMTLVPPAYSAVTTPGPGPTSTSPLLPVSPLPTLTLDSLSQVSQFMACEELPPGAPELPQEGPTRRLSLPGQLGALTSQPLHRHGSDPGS

Regarding `C#Cc1cc2c(cc1Sc1nc3c(N)ncnc3n1CCCNC(=O)C(C)(C)C)OCO2` [Compound 1B-43, N-{3-[6-Amino-8-(6-ethynyl-benzo[1,3]dioxol-5-ylsulfanyl)-purin-9-yl]-propyl}-2,2-dimethyl-propionamide], the IC50 in assay [1] (setting [4]) is greater than 100000 nM; in assay [3], 28 nM. For the same compound, the “Hsp90 binding affinity (in words, referring to Table 12)” value (“Hsp90 binding affinity” below) in assay [2] is “high level of binding affinity”.

Take `CN(C)c1cc2c(cc1Sc1nc3c(N)ncnc3n1CCCNC(=O)C(C)(C)C)OCO2` [Compound 1G-43, N-{3-[6-Amino-8-(6-dimethylamino-benzo[1,3]dioxol-5-ylsulfanyl)-purin-9-yl]-propyl}-2,2-dimethyl-propionamide]: the IC50 in assay [1] (setting [4]) was greater than 100000 nM; in assay [3], 11 nM. Also, in assay [2], the “Hsp90 binding affinity” value is recorded as “high level of binding affinity”.

`CC(C)(O)C(=O)NCCCn1c(Sc2cc3c(cc2I)OCO3)nc2c(N)ncnc21` [Compound 1A-48, N-(3-(6-Amino-8-((6-iodobenzo[d][1,3]dioxol-5-yl)thio)-9H-purin-9-yl)propyl)-2-hydroxy-2-methylpropanamide]: the IC50 was 12000 nM in assay [1] (setting [4]) and 22.1 nM in assay [3].

Take `CC(C)NCCCn1c(Sc2cc3c(cc2I)OCO3)nc2c(N)ncnc21` [PU-H71, reference compound]: in assay [1] (concentration displacing 50% of Predictor hERG tracer red, read-out: hERG assay result), the IC50 was 1000 nM.

Turning to `CC(C)(C)[S+]([O-])NCCCn1c(Cc2cc3c(cc2I)OCO3)nc2c(N)nc(F)nc21` (stereo not drawn) [Compound 4A-26, N-(3-(6-amino-2-fluoro-8-((6-iodobenzo[d][1,3]dioxol-5-yl)methyl)-9H-purin-9-yl)propyl)-2-methylpropane-2-sulfinamide], the IC50 in assay [1] (setting [4]) was greater than 100000 nM; in assay [3] it was 26.2 nM. Also, the “Hsp90 binding affinity” value in assay [2] is on record as “high level of binding affinity”.

As for `CC(C)(C)C(=O)NCCCn1c(Sc2cc3c(cc2I)OCO3)nc2c(N)ncnc21` [Compound 1A-43, N-(3-(6-amino-8-((6-iodobenzo[d][1,3]dioxol-5-yl)thio)-9H-purin-9-yl)propyl)pivalamide], the figures for the IC50 in assay [1] (setting [4]) and in assay [3] were greater than 100000 nM and 11 nM, respectively.

For `CC(C)(C)S(=O)(=O)NCCn1c(Sc2cc3c(cc2I)OCO3)nc2c(N)ncnc21` [Compound 1A-11, 2-Methyl-propane-2-sulfonic acid {2-[6-amino-8-(6-iodo-benzo[1,3]dioxol-5-ylsulfanyl)-purin-9-yl]-ethyl}-amide], the “Hsp90 binding affinity” value in assay [2] is recorded as “high level of binding affinity”. For the same compound, the IC50 in assay [3] came to 71.5 nM.

Take `C#Cc1cc2c(cc1Sc1nc3c(N)ncnc3n1CCCNS(C)(=O)=O)CCC2` [Compound 3A-43, N-{3-[6-Amino-8-(6-ethynyl-indan-5-ylsulfanyl)-purin-9-yl]-propyl}-methanesulfonamide]: the “Hsp90 binding affinity” value in assay [2] was “high level of binding affinity”. Moreover, the IC50 in assay [3] came to 37.4 nM.

As for `CC(C)(C)NS(=O)(=O)CCCn1c(Sc2cc3c(cc2I)OCO3)nc2c(N)ncnc21` [Compound 1A-19, 3-[6-Amino-8-(6-iodo-benzo[1,3]dioxol-5-ylsulfanyl)-purin-9-yl]-propane-1-sulfonic acid tert-butylamide], in assay [2], the “Hsp90 binding affinity” value was “high level of binding affinity”. Moreover, the IC50 in assay [3] amounted to 44 nM.

For the compound `CC(C)(C)NS(=O)(=O)CCn1c(Sc2cc3c(cc2I)OCO3)nc2c(N)ncnc21` [Compound 1A-5, 2-[6-Amino-8-(6-iodo-benzo[1,3]dioxol-5-ylsulfanyl)-purin-9-yl]-ethanesulfonic acid tert-butylamide], the “Hsp90 binding affinity” value in assay [2] was “high level of binding affinity”. Moreover, the IC50 in assay [3] was 78 nM.

For the compound `CS(=O)(=O)NCCn1c(Sc2cc3c(cc2I)OCO3)nc2c(N)ncnc21` [Compound 1A-10, N-{2-[6-Amino-8-(6-iodo-benzo[1,3]dioxol-5-ylsulfanyl)-purin-9-yl]-ethyl}-methanesulfonamide], the “Hsp90 binding affinity” value in assay [2] is “high level of binding affinity”. This compound also yielded an IC50 in assay [3] of 6.3 nM.

For `CS(=O)(=O)NCCn1c(Sc2cc3c(cc2I)CCC3)nc2c(N)ncnc21` [Compound 3A-10, N-{2-[6-Amino-8-(6-iodo-indan-5-ylsulfanyl)-purin-9-yl]-ethyl}-methanesulfonamide], the “Hsp90 binding affinity” value in assay [2] is reported as “high level of binding affinity”. The compound also displayed an IC50 in assay [3] of 3.5 nM.

On to `CC(C)(C)[S+]([O-])NCCCn1c(Sc2cc3c(cc2I)OCO3)nc2c(N)ncnc21` (stereo not drawn) [Compound 1A-26, 2-Methyl-propane-2-sulfinic acid {3-[6-amino-8-(6-iodo-benzo[1,3]dioxol-5-ylsulfanyl)-purin-9-yl]-propyl}-amide], for which the IC50 in assay [1] (setting [4]) was greater than 100000 nM; in assay [3], 12 nM.

Turning to `Nc1ncnc2c1nc(Sc1cc3c(cc1I)OCO3)n2CCCNC(=O)C1CC1` [Compound 1A-45, N-(3-(6-amino-8-((6-iodobenzo[d][1,3]dioxol-5-yl)thio)-9H-purin-9-yl)propyl)cyclopropane carboxamide], the IC50 is greater than 100000 nM in assay [1] (setting [4]) and 9.8 nM in assay [3].

For `CC(C)(C)S(=O)(=O)NCCn1c(Sc2cc3c(cc2I)CCO3)nc2c(N)ncnc21` [Compound 2A-11, 2-Methyl-propane-2-sulfonic acid {2-[6-amino-8-(5-iodo-2,3-dihydro-benzofuran-6-ylsulfanyl)-purin-9-yl]-ethyl}-amide], the “Hsp90 binding affinity” value in assay [2] is given as “high level of binding affinity”. The IC50 in assay [3] amounted to 51 nM.

Turning to `CC(C)(C)S(=O)(=O)NCCn1c(Sc2cc3c(cc2I)CCC3)nc2c(N)ncnc21` [Compound 3A-11, 2-Methyl-propane-2-sulfonic acid {2-[6-amino-8-(6-iodo-indan-5-ylsulfanyl)-purin-9-yl]-ethyl}-amide], the “Hsp90 binding affinity” value in assay [2] is listed as “high level of binding affinity”. Moreover, the IC50 in assay [3] worked out at 68 nM.

On to `CS(=O)(=O)NCCCn1c(Sc2cc3c(cc2I)CCC3)nc2c(N)ncnc21` [Compound 3A-24, N-{3-[6-Amino-8-(6-iodo-indan-5-ylsulfanyl)-purin-9-yl]-propyl}-methanesulfonamide], for which the “Hsp90 binding affinity” value in assay [2] is on record as “high level of binding affinity”. In assay [3], this compound returned an IC50 of 8.1 nM.

Take `CC(C)(C)[S+]([O-])NCCCn1c(Sc2cc3c(cc2I)CCC3)nc2c(N)ncnc21` (stereo not drawn) [Compound 3A-26, 2-Methyl-propane-2-sulfinic acid {3-[6-amino-8-(6-iodo-indan-5-ylsulfanyl)-purin-9-yl]-propyl}-amide]: in assay [2], the “Hsp90 binding affinity” value is listed as “high level of binding affinity”. The IC50 in assay [3] is 20.1 nM.

For the compound `Nc1ncnc2c1nc(Sc1cc3c(cc1I)CCO3)n2CCCNC(=O)C1CC1` [Compound 2A-45, Cyclopropanecarboxylic acid {3-[6-amino-8-(5-iodo-2,3-dihydro-benzufuran-6-ylsulfanyl)-purin-9-yl]-propyl}-amide], the “Hsp90 binding affinity” value in assay [2] is reported as “high level of binding affinity”. For the same compound, in assay [3], the IC50 worked out at 11.8 nM.

As to `CC(C)(C)[S+]([O-])NCCn1c(Sc2cc3c(cc2I)CCO3)nc2c(N)ncnc21` (stereo not drawn) [Compound 2A-12, 2-Methyl-propane-2-sulfinic acid {2-[6-amino-8-(5-iodo-2,3-dihydro-benzofuran-6-ylsulfanyl)-purin-9-yl]-ethyl}-amide], the “Hsp90 binding affinity” value in assay [2] is reported as “high level of binding affinity”. This compound also came in with an IC50 in assay [3] of 68 nM.
